The structures appear in SMILES notation.

Results on 13 molecules are retold here after BindingDB's records for doi:10.1021/jm00396a028 (Merck Sharp & Dohme Research Laboratories, 1988).

The nature of the assay: Displacement of [125I]gastrin from guinea pig gastric glands.
For orientation: IC50 means the concentration that inhibits the measured activity by half. A high value points to lower potency. `Cc1nnc2n1-c1ccc(Cl)cc1C(c1ccccc1)=NC2` had a 50% inhibitory concentration (IC50) of over 100000 nM. Then `Cc1nnc2n1-c1ccccc1C(c1ccccc1)=NC2NC(=O)Nc1ccc(Cl)cc1` (stereo not drawn) [1-(4-Chloro-phenyl)-3-(1-methyl-6-phenyl-4H-2,3,5,10b-tetraaza-benzo[e]azulen-4-yl)-urea], with 380 nM; and `O=C(Nc1ccc(Cl)cc1)NC1N=C(c2ccccc2)c2ccccc2-n2cnnc21` (stereo not drawn) [1-(4-Chloro-phenyl)-3-(6-phenyl-4H-2,3,5,10b-tetraaza-benzo[e]azulen-4-yl)-urea], with 380 nM; and `Cc1nnc2n1-c1ccccc1C(c1ccccc1F)=NC2NC(=O)c1cc2ccccc2[nH]1` (stereo not drawn) [1H-Indole-2-carboxylic acid [6-(2-fluoro-phenyl)-1-methyl-4H-2,3,5,10b-tetraaza-benzo[e]azulen-4-yl]-amide(0.2EtOAc)], with 7 nM. In the case of `O=C(NC1N=C(c2ccccc2F)c2ccccc2-n2cnnc21)c1cc2ccccc2[nH]1` (stereo not drawn) [1H-Indole-2-carboxylic acid [6-(2-fluoro-phenyl)-4H-2,3,5,10b-tetraaza-benzo[e]azulen-4-yl]-amide(0.1EtOAc)] it was 65 nM. For `O=C(NC1N=C(c2ccccc2F)c2ccccc2-n2cnnc21)c1ccc(Cl)cc1` (stereo not drawn) [4-Chloro-N-[6-(2-fluoro-phenyl)-4H-2,3,5,10b-tetraaza-benzo[e]azulen-4-yl]-benzamide], the half-maximal inhibitory concentration (IC50) stood at 2400 nM. In the case of `Fc1ccccc1C1=N[C@H](Cc2c[nH]c3ccccc23)c2nnc(-c3ccccc3)n2-c2ccccc21` [6-(2-Fluoro-phenyl)-4-(1H-indol-3-ylmethyl)-1-phenyl-4H-2,3,5,10b-tetraaza-benzo[e]azulene(0.55CHCl3)] it was over 100000 nM; in that of `Fc1ccccc1C1=N[C@H](Cc2c[nH]c3ccccc23)c2nnc(C(Cl)(Cl)Cl)n2-c2ccccc21` [6-(2-Fluoro-phenyl)-4-(1H-indol-3-ylmethyl)-1-trichloromethyl-4H-2,3,5,10b-tetraaza-benzo[e]azulene(0.5CHCl3)], over 100000 nM. Then `Fc1ccccc1C1=N[C@H](Cc2c[nH]c3ccccc23)c2nncn2-c2ccccc21` [6-(2-Fluoro-phenyl)-4-(1H-indol-3-ylmethyl)-4H-2,3,5,10b-tetraaza-benzo[e]azulene(0.5CHCl3)], with 25000 nM.

As to `O=C(NC1N=C(c2ccccc2)c2ccccc2-n2cnnc21)OCc1ccccc1` (stereo not drawn) [(6-Phenyl-4H-2,3,5,10b-tetraaza-benzo[e]azulen-4-yl)-carbamic acid benzyl ester(0.25EtOAc)], the IC50 turned out to be 4800 nM. Then `Cc1nnc2n1-c1ccc(Cl)cc1C(c1ccccc1Cl)=NC2` [Halcion], with over 100000 nM. In the case of `CN(C)Cc1nnc2n1-c1ccccc1C(c1ccccc1F)=N[C@@H]2Cc1c[nH]c2ccccc12` [[6-(2-Fluoro-phenyl)-4-(1H-indol-3-ylmethyl)-4H-2,3,5,10b-tetraaza-benzo[e]azulen-1-ylmethyl]-dimethyl-amine(0.22CHCl3)] it was 60000 nM.

Molecule `O=C(NC1N=C(c2ccccc2F)c2ccccc2-n2cnnc21)OCc1ccccc1` (stereo not drawn) [[6-(2-Fluoro-phenyl)-4H-2,3,5,10b-tetraaza-benzo[e]azulen-4-yl]-carbamic acid benzyl ester] came in with an IC50 of 3000 nM.
